The results in this text go back to patent US9346957B2, “Cell permeable, fluorescent dye” (École Polytechnique Fédérale de Lausanne (EPFL), priority 2011, dated 2016).

One series relates to mammalian cells. The experiment in a line: Membrane permeability, shown by incubating cells with the dye and fluorescence imaging. It counts as cell-based. The following applies: simple incubation with the dye. On the procedure:
(§1) As a representative example for the labeling of a SNAP-tag fusion with BG-Sir650, the labeling and fluorescence imaging of SNAP-Cep41 (microtubule binding protein) fusion protein in U2OS cells is described. SNAP-Cep41 was expressed from episomal pEBTet plasmid encoding puromycin resistance under a doxycycline inducible promoter in U2OS cells. Prior to induction of expression, cells were selected by growing them in complete Dulbecco's Modified Eagle's Medium (DMEM) with 1 μg/ml puromycin for at least 1.5 weeks. SNAP-Cep41 fusion protein expression was induced for 48 h by adding to complete DMEM grow medium doxycycline at final concentration of 0.1 μg/ml before staining procedure. Living cells were stained by replacing old media with complete DMEM growth media containing 5 μM BG-SiR650, and incubated for 30 min at 37° C. in 5% CO2 incubator. Cells were washed two times with Hank's Buffered Salt Solution (HBSS) for 5 min and once with media for 1 h. Before imaging, growth media was replaced with HBSS. Images (FIG. 2A) were acquired on a confocal fluorescence microscope as z-stacks and presented as maximum intensity projections. For the imaging of fixed cells, living cells were labeled with 1 μM BG-Sir650 for 30 min at 37° C. […] Images (FIG. 2B) were acquired on a confocal fluorescence microscope as z-stack and presented as maximum intensity projections. […]

For a further series, the system named is SNAP-tag fusion proteins. As to the kind of experiment: Live cell labeling of SNAP-tag fusion proteins, fluorescence imaging. The class given is cell-based. The following applies: living mammalian cells, incubation with dye. Here is the method: as §1

`CN(C)c1ccc2c(c1)[Si](C)(C)C1=CC(=[N+](C)C)C=CC1=C2c1cc(C(=O)NCc2ccc(COc3nc(N)nc4[nH]cnc34)cc2)ccc1C(=O)[O-]` [SiR650-6BG]: the membrane permeability entry in the series with mammalian cells is listed as “excellent membrane permeability”. Further, in the series with SNAP-tag fusion proteins, the “specific labeling of SNAP-tag fusion proteins in living cells” value is listed as “permits the specific labeling of SNAP-tag fusion proteins”.
